In patent publication US11540518B2, “Fungicidal oxadiazoles” (FMC Corporation, priority 2017, dated 2023):

Experiments:
Format in all cases: in vivo
Zymoseptoria tritici = assay: Test B: wheat leaf blotch control on wheat seedlings; details: sprayed to run-off on wheat seedlings, inoculated the following day, 100 = 100% disease control, 0 = no control
Excerpt: General protocol for preparing test suspensions for Tests A-C: the test compounds were first dissolved in acetone in an amount equal to 3% of the final volume and then suspended at the desired concentration (in ppm) in acetone and purified water (50/50 mix by volume) containing 250 ppm of the surfactant PEG400 (polyhydric alcohol esters). The resulting test suspensions were then used in Tests A-C. The test solution was sprayed to the point of run-off on wheat seedlings. The following day the seedlings were inoculated with a spore suspension of Zymoseptoria tritici (the causal agent of wheat leaf blotch) and incubated in a saturated atmosphere at 24° C. for 48 h, and then moved to a growth chamber at 20° C. for 17 days, after which time disease ratings were made. Results for Tests A-C are given in Table A. In the Table, a rating of 100 indicates 100% disease control and a rating of 0 indicates no disease control (relative to the controls). A dash (-) indicates the compound was not tested.

Phakopsora pachyrhizi = assay: Test A: Asian soybean rust control on soybean seedlings; details: sprayed to run-off on soybean seedlings, inoculated the following day, 100 = 100% disease control, 0 = no control; for pest or weed control at 250 ppm: Phakopsora pachyrhizi, 216 h, read-out: Test A disease control rating
Summary of the method: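 Compounds in acetone/water (50/50) with 250 ppm PEG400 were sprayed to run-off on soybean seedlings, which were inoculated with P. pachyrhizi spores the next day. Plants were held in saturated atmosphere at 22° C for 24 h, then 8 days at 22° C, before visual rating (0–100% disease control vs controls).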

[1] = test system: Puccinia recondita f. sp. tritici; assay: Test C: wheat leaf rust control on wheat seedlings; details: sprayed to run-off on wheat seedlings, inoculated the following day, 100 = 100% disease control, 0 = no control; for pest or weed control at 250 ppm: Puccinia recondita, 168 h, read-out: Test C disease control rating
Summary of the method: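 Wheat seedlings were sprayed to run-off with compound suspension (ppm, acetone/water with 250 ppm PEG400), then inoculated with Puccinia recondita f. sp. tritici spores the next day. Plants were held 24 h in saturated atmosphere at 20 °C, then 6 days in a 20 °C growth chamber. Disease control is rated 0-100% relative to untreated controls.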

[2] = 250 ppm (incl. values marked * = tested at 250 ppm)

Compound	Test B disease control rating (Zymoseptoria tritici; [2])	Test A disease control rating (Phakopsora pachyrhizi; 250 ppm)	Test C disease control rating ([1]; 250 ppm)	other results
CNC(=O)OCc1ccc(-c2noc(C(F)(F)F)n2)cc1 [Compound 9]				Test B disease control rating (Zymoseptoria tritici; 260 ppm): 94%; Test A disease control rating (Phakopsora pachyrhizi; 260 ppm): 100%; Test C disease control rating ([1]; 260 ppm): 100%
O=C(Nc1ccccc1)OCc1ccc(-c2noc(C(F)(F)F)n2)cc1 [Compound 1]				Test B disease control rating (Zymoseptoria tritici; 270 ppm): 79%; Test A disease control rating (Phakopsora pachyrhizi; 270 ppm): 100%; Test C disease control rating ([1]; 270 ppm): 100%
CNC(=O)OCc1ccc(-c2noc(C(F)(F)F)n2)s1 [Compound 38]	80* %			Test A disease control rating (Phakopsora pachyrhizi; 10 ppm): 94%; Test C disease control rating ([1]; 10 ppm): 96%
CNC(=O)OC(c1ccc(-c2noc(C(F)(F)F)n2)cc1)c1cccc(F)c1 (stereo not drawn) [Compound 132]	95%	100%	100%	
CCOC(=O)NC(=O)OCCc1ccc(-c2noc(C(F)(F)F)n2)cc1 [Compound 78]				Test B disease control rating (Zymoseptoria tritici; 10 ppm): 95%; Test A disease control rating (Phakopsora pachyrhizi; 10 ppm): 100%; Test C disease control rating ([1]; 10 ppm): 91%
C#CCN(C)C(=O)OCc1ccc(-c2noc(C(F)(F)F)n2)cc1 [Compound 32]	0* %			Test A disease control rating (Phakopsora pachyrhizi; 10 ppm): 100%; Test C disease control rating ([1]; 10 ppm): 68%
CCOC(=O)CNC(=O)OCc1ccc(-c2noc(C(F)(F)F)n2)cc1 [Compound 4]				Test B disease control rating (Zymoseptoria tritici; 260 ppm): 46%; Test A disease control rating (Phakopsora pachyrhizi; 260 ppm): 100%; Test C disease control rating ([1]; 260 ppm): 100%
C#CCNC(=O)OC(C)c1ccc(-c2noc(C(F)(F)F)n2)cc1 (stereo not drawn) [Compound 76]	0* %			Test A disease control rating (Phakopsora pachyrhizi; 10 ppm): 100%; Test C disease control rating ([1]; 10 ppm): 99%
NC(=O)OC(c1ccc(F)cc1)c1ccc(-c2noc(C(F)(F)F)n2)cc1 (stereo not drawn) [Compound 112]	85%	100%	100%	
CNC(=O)OC(c1ccc(F)cc1)c1ccc(-c2noc(C(F)(F)F)n2)cc1 (stereo not drawn) [Compound 113]	82%	100%	100%	
CCNC(=O)OCc1ccc(-c2noc(C(F)(F)F)n2)s1 [Compound 39]	93* %			Test A disease control rating (Phakopsora pachyrhizi; 10 ppm): 96%; Test C disease control rating ([1]; 10 ppm): 95%
C#CCNC(=O)OC(c1ccc(-c2noc(C(F)(F)F)n2)cc1)c1cccc(Cl)c1 (stereo not drawn) [Compound 104]	84%	100%	80%	
CC(C)(OC(N)=O)c1ccc(-c2noc(C(F)(F)F)n2)cc1 [Compound 87]	99%	100%	100%	
CN(C)C(=O)OCc1ccc(-c2noc(C(F)(F)F)n2)cc1 [Compound 6]				Test B disease control rating (Zymoseptoria tritici; 260 ppm): 76%; Test A disease control rating (Phakopsora pachyrhizi; 260 ppm): 100%; Test C disease control rating ([1]; 260 ppm): 100%
NC(=O)OC(c1ccc(-c2noc(C(F)(F)F)n2)cc1)c1cccc(Cl)c1 (stereo not drawn) [Compound 101]	90%	100%	99%	
O=C(NCc1ccccc1)OCc1ccc(-c2noc(C(F)(F)F)n2)cc1 [Compound 13]				Test B disease control rating (Zymoseptoria tritici; 260 ppm): 36%; Test A disease control rating (Phakopsora pachyrhizi; 260 ppm): 100%; Test C disease control rating ([1]; 260 ppm): 100%
COCCNC(=O)OCc1ccc(-c2noc(C(F)(F)F)n2)cc1 [Compound 11]	96%	100%	100%	
CCOC(=O)NN=Cc1ccc(-c2noc(C(F)(F)F)n2)s1 [Compound 124]	73* %			Test A disease control rating (Phakopsora pachyrhizi; 50 ppm): 100%; Test C disease control rating ([1]; 50 ppm): 100%
NC(=O)OCc1ccc(-c2noc(C(F)(F)F)n2)cc1F [Compound 85]	98%	100%	100%	
CN(C)C(=O)OCc1cccc(-c2noc(C(F)(F)F)n2)c1 [Compound 99]	0%	0%	55%	
COC(=O)NN=Cc1ccc(-c2noc(C(F)(F)F)n2)cc1 [Compound 105, methyl 2-[[4-[5-(trifluoromethyl)-1,2,4-oxadiazol-3-yl]phenyl]methylene]-hydrazinecarboxylate]	99%			pest or weed control at 250 ppm (Phakopsora pachyrhizi; 250 ppm): 100%; pest or weed control at 250 ppm ([1]; 250 ppm): 100%
O=C(OCc1cccc(-c2noc(C(F)(F)F)n2)c1)n1ccnc1 [Compound 123]	0%			pest or weed control at 250 ppm (Phakopsora pachyrhizi; 250 ppm): 100%; pest or weed control at 250 ppm ([1]; 250 ppm): 96%
C#CCNC(=O)OC(c1ccc(-c2noc(C(F)(F)F)n2)cc1)c1cccc(F)c1 (stereo not drawn) [Compound 135]	88%	100%	100%	
CCOC(=O)NC(=O)OCc1ccc(-c2noc(C(F)(F)F)n2)cc1 [Compound 79]				Test B disease control rating (Zymoseptoria tritici; 10 ppm): 98%; Test A disease control rating (Phakopsora pachyrhizi; 10 ppm): 100%; Test C disease control rating ([1]; 10 ppm): 97%
CCNC(=O)OCc1cccc(-c2noc(C(F)(F)F)n2)c1 [Compound 95]	3%	99%	100%	
CCC(C)NC(=O)OCc1ccc(-c2noc(C(F)(F)F)n2)cc1 (racemic) [Compound 14]	84%	100%	100%	
CNC(=O)OC(c1ccc(C)cc1)c1ccc(-c2noc(C(F)(F)F)n2)cc1 (stereo not drawn) [Compound 144]	0%	100%	100%	
CNC(=O)OC(c1ccccc1)c1ccc(-c2noc(C(F)(F)F)n2)cc1 (stereo not drawn) [Compound 137]	70%	100%	100%	
CCCCNC(=O)OCc1ccc(-c2noc(C(F)(F)F)n2)cc1 [Compound 15]				Test B disease control rating (Zymoseptoria tritici; 265 ppm): 92%; Test A disease control rating (Phakopsora pachyrhizi; 265 ppm): 100%; Test C disease control rating ([1]; 265 ppm): 100%
CC(C)CNC(=O)OC(c1ccccc1)c1ccc(-c2noc(C(F)(F)F)n2)cc1 (stereo not drawn) [Compound 140]	34%	100%	86%	
